Laboratory results taken from patent US20160270410A1, “INSECTICIDAL COMPOSITIONS AND METHODS OF USING THE SAME” (Clarke Mosquito Control Products, Inc., priority 2011, published 2016).

Test system: 3rd instar Aedes aegypti
Assay: Laboratory bioassay in larval trays, larvicide surface film, Aedes aegypti
Type: in vivo
Details: components of Sample 42 tested neat, rate 663 μL, 21° C.
Experimental: Laboratory Bioassay Method. All larvae were reared on a diet of ground TETRAMIN® fish food (Tetra, Blacksburg, Va.) in an insectary maintained at 30° C. and 45% relative humidity (RH). Mainly third instars of Aedes aegypti were used for the laboratory container experiments. Anopheles quadrimaculatus and Culex quinquefasciatus were also tested where indicated.
Laboratory bioassays were conducted in […] plastic larval trays (laboratory containers). Each tray was filled with 27 liters of de-chlorinated water and received 50 healthy third instar larvae. The temperature of the water during most of the studies was 21° C. Additional testing was done at a water temperature of 15.6° C. and 28° C. Treatments were applied at a rate of 3 gal/acre or 663 μL/tray with an Eppendorf pipette. During the experimental period larvae were fed ground TETRAMIN® fish food (Tetra, Blacksburg, Va.) that was blended with water before introduction into the water of the larval tray to prevent flotation and thus interference with the surface film being tested.
Trays were scored for mortality at 1, 2, 4, 24, 48, and 72 hours following treatment introduction. At each time period the numbers of live and dead larvae were counted. […] Each treatment in the study was replicated three times using separate trays for each replication. A 95% mortality rate was considered acceptable for a commercial product.

Substance: ethoxylated tridecyl alcohol
- % MORTALITY 24 HAT (24 HAT): 17%
- % MORTALITY 48 HAT (48 HAT): 20%
- % MORTALITY 72 HAT (72 HAT): 25%
